COc1ccc(Cl)cc1C(=O)NCCc1ccc(S(=O)(=O)NC(=O)NC2CCCCC2)cc1
solubility (mole fraction)
Conditions	283.15 K	288.15 K	293.15 K	298.15 K	303.15 K	308.15 K	313.15 K	318.15 K	323.15 K
in acetone	0.000443	0.000559	0.000701	0.00088	0.00112	0.0014	0.00175	0.00219	0.00269
in ethanol	0.000103	0.000145	0.000196	0.000259	0.000333	0.000437	0.00062	0.000893	0.00122
in ethyl acetate	8.63e-05	0.000115	0.000146	0.000186	0.000236	0.000307	0.000394	0.000511	0.000647
in isopropanol	7.96e-05	9.98e-05	0.00013	0.000176	0.000216	0.000286	0.000422	0.000607	0.000892
in methanol	0.000129	0.000172	0.00022	0.0003	0.000378	0.000477	0.00066	0.00103	0.00137
in water	8.38e-08	8.83e-08	1.05e-07	1.28e-07	1.64e-07	2.3e-07	3.24e-07	4.54e-07	7.84e-07

Reference: BigSolDB 2.1
